This note sets out measurements from patent US20030153623A1, “Solid preparation containing sparingly soluble NSAIDs” (Yamanouchi Pharmaceutical Co., Ltd., priority 1998, published 2003).

Common to all, as to format: physicochemical
The nature of series [1]: Dissolution test, puddle method, Japanese Pharmacopoeia, water (Test Example 1). The following applies: ibuprofen dissolved for 5 minutes; water 500 ml; 100 rpm; ibuprofen content 150 mg. How it is done: Each sample was tested by the puddle method in an dissolution test according to the Japanese Pharmacopoeia, and the amount of ibuprofen (μg/ml) dissolved for 5 minutes in the test was determined. Water was used as the test solution, the amount of the dissolution medium was 500 ml, and the number of puddle revolutions was 100 rpm. The raw ibuprofen material, Samples 5-1 to 5-7, and Sample 6 were examined respectively in the test. The content of ibuprofen in every sample was 150 mg.

A short description of series [2]: Dissolution test, puddle method, first solution pH 1.2, various chemicals (Test Example 5). The settings on record: raw material of the chemical; dissolved for 5 minutes; first solution (pH 1.2) 500 ml; 50 rpm; a dose of each chemical. How it is done:
Samples 8-1 and 8-9, and raw materials of various chemicals as the control, were examined by the puddle method in an dissolution test according to the Japanese Pharmacopoeia, and the amount of ibuprofen (μg/ml) dissolved for 5 minutes in the test was determined. The test solution used was the first solution (pH 1.2) in a disintegration test in the Japanese Pharmacopoeia, the amount of the dissolution medium was 500 ml, and the number of puddle revolutions was 50 rpm. Each sample contains a dose of each chemical.

A short description of series [3]: Dissolution test, puddle method, first solution pH 1.2 (Test Example 4). How it is done:
Samples 7-1 and 7-9, and the raw ibuprofen powder as the control, were examined by the puddle method in an dissolution test according to the Japanese Pharmacopoeia, and the amount of ibuprofen (μg/ml) dissolved for 5 minutes in the test was determined. The test solution used was a first solution (pH 1.2) in a disintegration test in the Japanese Pharmacopoeia, the amount of the dissolutuion medium was 500 ml, and the number of puddle revolutions was 50 rpm. The content of ibuprofen in every sample was 150 mg.

In the case of `CC(C)Cc1ccc(C(C)C(=O)O)cc1` (stereo not shown) [Ibuprofen, ibuprofen], the Dissolved amount in series [1] worked out at 5.7 µg/mL; in series [3] (ibuprofen dissolved for 5 minutes, first solution (pH 1.2) 500 ml, 50 rpm, ibuprofen content 150 mg), 0.00 µg/mL. Also, the “Dissolved amount, Control” value in series [2] was 0.00 µg/mL. The “Solubility in first solution (pH 1.2), in words” value in series [3] (first solution (pH 1.2) of the disintegration test) is recorded as “not dissolved”.
Regarding `CC(C(=O)O)c1ccc(CC2CCCC2=O)cc1` (stereo not shown) [Loxoprofen], the “Dissolved amount, Control” value in series [2] amounted to 101.73 µg/mL.
On the same count and under the same terms, in the case of `CC(C(=O)O)c1ccc2c(c1)Cc1cccnc1O2` (stereo not shown) [Pranoprofen] it was 17.81 µg/mL.
Same read-out and setting: in the case of `CC(C(=O)O)c1ccc(-c2ccccc2)c(F)c1` (stereo not shown) [Flurbiprofen] it was 0.22 µg/mL.
Take `CC(C(=O)O)c1cccc(Oc2ccccc2)c1` (stereo not shown) [Phenoprofen]: in series [2], the “Dissolved amount, Control” value was 11.47 µg/mL.
Still for that read-out and setting: in the case of `CC(C(=O)O)c1cccc(C(=O)c2ccccc2)c1` (stereo not shown) [Ketoprofen] it was 1.57 µg/mL; in that of `COc1ccc2c(c1)c(CC(=O)O)c(C)n2C(=O)c1ccc(Cl)cc1` [Indomethacin], 0.09 µg/mL.
